Experimental data: article PMC7686313, “Phase 1 study of mTORC1/2 inhibitor sapanisertib (TAK-228) in advanced solid tumours, with an expansion phase in renal, endometrial or bladder cancer” (British Journal of Cancer, 2020)

Test: Safety (adverse events, NCI CTCAE v4.0), expansion phase
Conditions: expansion QW 40 mg
Excerpt: Based on data collected during dose-escalation, the expansion phase evaluated the safety and efficacy of QD and QW sapanisertib in patients with RCC, endometrial or bladder cancer. Patients could continue receiving sapanisertib for ≤1 year (or beyond, if the investigator and sponsor agreed) in the absence of disease progression or unacceptable toxicity.
Patients who received ≥1 dose of sapanisertib were included in the safety population. The response-evaluable population included patients who received ≥1 dose of sapanisertib, had measurable disease at baseline, and had ≥1 postbaseline assessment. […] Adverse events (AEs) were assessed using the National Cancer Institute Common Terminology Criteria for Adverse Events, v4.0. Patients were provided with a home blood-glucose meter to monitor their fasting predose blood-glucose measurements to assess hyperglycaemia as an on-target AE and PD marker.

For `CC(C)n1nc(-c2ccc3oc(N)nc3c2)c2c(N)ncnc21` [Sapanisertib], the “Abdominal pain, all-grade AE of any cause” value was 4 (15) n (%), the “Abdominal pain, grade ≥3 AE of any cause” value was 0 (0) n (%) and the “Acute kidney injury, grade ≥3 AE of any cause” value was 2 (8) n (%). For the same compound, the “Acute kidney injury, treatment-related AE” value was 4 (15) n (%), the “Anaemia, all-grade AE of any cause” value was 11 (42) n (%) and the “Anaemia, grade ≥3 AE of any cause” value was 3 (12) n (%). For the same compound, the “Anaemia, treatment-related AE” value was 8 (31) n (%), the “Any AE” value was 26 (100) n (%) and the “Any AE resulting in dose modification/interruption” value was 20 (77) n (%). The “Any AE resulting in treatment discontinuation” value was 2 (8) n (%), the “Any SAE” value was 9 (35) n (%) and the “Any grade ≥3 AE” value was 19 (73) n (%). For the same compound, the “Any treatment-related AE” value was 26 (100) n (%), the “Any treatment-related SAE” value was 4 (15) n (%) and the “Any treatment-related grade ≥3 AE” value was 14 (54) n (%). For the same compound, the “Arthralgia, all-grade AE of any cause” value was 7 (27) n (%), the “Asthenia, grade ≥3 AE of any cause” value was 2 (8) n (%) and the “Asthenia, treatment-related AE” value was 4 (15) n (%). For the same compound, the “Asthenia, treatment-related grade ≥3 AE” value was 1 (4) n (%), the “Blood creatinine increased, all-grade AE of any cause” value was 5 (19) n (%) and the “Blood creatinine increased, treatment-related AE” value was 4 (15) n (%). For the same compound, the “Constipation, all-grade AE of any cause” value was 10 (38) n (%), the “Constipation, grade ≥3 AE of any cause” value was 1 (4) n (%) and the “Cough, all-grade AE of any cause” value was 8 (31) n (%). For the same compound, the “Decreased appetite, all-grade AE of any cause” value was 14 (54) n (%), the “Decreased appetite, treatment-related AE” value was 14 (54) n (%) and the “Dehydration, all-grade AE of any cause” value was 7 (27) n (%). For the same compound, the “Dehydration, grade ≥3 AE of any cause” value was 3 (12) n (%), the “Dehydration, treatment-related AE” value was 5 (19) n (%) and the “Dehydration, treatment-related grade ≥3 AE” value was 2 (8) n (%). For the same compound, the “Depression, all-grade AE of any cause” value was 3 (12) n (%), the “Diarrhoea, all-grade AE of any cause” value was 13 (50) n (%) and the “Diarrhoea, grade ≥3 AE of any cause” value was 1 (4) n (%). For the same compound, the “Diarrhoea, treatment-related AE” value was 13 (50) n (%), the “Diarrhoea, treatment-related grade ≥3 AE” value was 1 (4) n (%) and the “Dizziness, all-grade AE of any cause” value was 3 (12) n (%). For the same compound, the “Dry mouth, all-grade AE of any cause” value was 7 (27) n (%), the “Dry mouth, treatment-related AE” value was 6 (23) n (%) and the “Dysgeusia, all-grade AE of any cause” value was 3 (12) n (%). For the same compound, the “Dysgeusia, treatment-related AE” value was 3 (12) n (%), the “Dyspepsia, treatment-related AE” value was 2 (8) n (%) and the “Dyspnoea, grade ≥3 AE of any cause” value was 0 (0) n (%). For the same compound, the “Fatigue, all-grade AE of any cause” value was 24 (92) n (%), the “Fatigue, grade ≥3 AE of any cause” value was 4 (15) n (%) and the “Fatigue, treatment-related AE” value was 23 (88) n (%). The “Fatigue, treatment-related grade ≥3 AE” value was 4 (15) n (%), the “Haematuria, grade ≥3 AE of any cause” value was 0 (0) n (%) and the “Headache, all-grade AE of any cause” value was 6 (23) n (%). For the same compound, the “Headache, treatment-related AE” value was 4 (15) n (%), the “Hypercholesterolemia, treatment-related AE” value was 0 (0) n (%) and the “Hyperglycaemia, all-grade AE of any cause” value was 20 (77) n (%). For the same compound, the “Hyperglycaemia, grade ≥3 AE of any cause” value was 6 (23) n (%), the “Hyperglycaemia, treatment-related AE” value was 20 (77) n (%) and the “Hyperglycaemia, treatment-related grade ≥3 AE” value was 6 (23) n (%). For the same compound, the “Hyperkalaemia, grade ≥3 AE of any cause” value was 0 (0) n (%), the “Hypertension, grade ≥3 AE of any cause” value was 1 (4) n (%) and the “Hypokalaemia, grade ≥3 AE of any cause” value was 0 (0) n (%). The “Hyponatremia, grade ≥3 AE of any cause” value was 1 (4) n (%), the “Hypophosphatemia, grade ≥3 AE of any cause” value was 2 (8) n (%) and the “Hypophosphatemia, treatment-related AE” value was 4 (15) n (%). The “Hypophosphatemia, treatment-related grade ≥3 AE” value was 2 (8) n (%), the “Lymphopenia, grade ≥3 AE of any cause” value was 1 (4) n (%) and the “Lymphopenia, treatment-related grade ≥3 AE” value was 0 (0) n (%). The “Musculoskeletal chest pain, grade ≥3 AE of any cause” value was 1 (4) n (%), the “Nausea, all-grade AE of any cause” value was 20 (77) n (%) and the “Nausea, grade ≥3 AE of any cause” value was 2 (8) n (%). For the same compound, the “Nausea, treatment-related AE” value was 20 (77) n (%), the “Nausea, treatment-related grade ≥3 AE” value was 2 (8) n (%) and the “Oedema peripheral, all-grade AE of any cause” value was 5 (19) n (%). The On-study deaths was 1 (4) n (%), the “Oropharyngeal pain, all-grade AE of any cause” value was 9 (35) n (%) and the “Pain in extremity, grade ≥3 AE of any cause” value was 1 (4) n (%). For the same compound, the “Pneumonia, grade ≥3 AE of any cause” value was 0 (0) n (%), the “Pruritus generalised, all-grade AE of any cause” value was 3 (12) n (%) and the “Pruritus generalised, treatment-related AE” value was 2 (8) n (%). The “Pruritus generalised, treatment-related grade ≥3 AE” value was 0 (0) n (%), the “Pruritus, all-grade AE of any cause” value was 4 (15) n (%) and the “Pruritus, treatment-related AE” value was 3 (12) n (%). The “Pyrexia, all-grade AE of any cause” value was 5 (19) n (%), the “Rash maculo-papular, all-grade AE of any cause” value was 4 (15) n (%) and the “Rash maculo-papular, grade ≥3 AE of any cause” value was 1 (4) n (%). For the same compound, the “Rash maculo-papular, treatment-related AE” value was 1 (4) n (%), the “Rash maculo-papular, treatment-related grade ≥3 AE” value was 0 (0) n (%) and the “Rash, treatment-related AE” value was 1 (4) n (%). For the same compound, the “Rash, treatment-related grade ≥3 AE” value was 0 (0) n (%), the “Sepsis, grade ≥3 AE of any cause” value was 0 (0) n (%) and the “Stomatitis (includes oropharyngeal pain and mucosal inflammation), treatment-related AE” value was 10 (38) n (%). For the same compound, the “Stomatitis, all-grade AE of any cause” value was 12 (46) n (%), the “Stomatitis, grade ≥3 AE of any cause” value was 1 (4) n (%) and the “Stomatitis, treatment-related grade ≥3 AE” value was 1 (4) n (%). For the same compound, the “Thrombocytopenia, grade ≥3 AE of any cause” value was 1 (4) n (%), the “Thrombocytopenia, treatment-related grade ≥3 AE” value was 1 (4) n (%) and the “Transitional cell carcinoma, grade ≥3 AE of any cause” value was 1 (4) n (%). The “Urinary tract infection, all-grade AE of any cause” value was 8 (31) n (%), the “Vomiting, all-grade AE of any cause” value was 20 (77) n (%) and the “Vomiting, grade ≥3 AE of any cause” value was 1 (4) n (%). For the same compound, the “Vomiting, treatment-related AE” value was 19 (73) n (%), the “Weight decreased, all-grade AE of any cause” value was 7 (27) n (%) and the “Weight decreased, treatment-related AE” value was 4 (15) n (%).
